From US20260008787A1, “FUSED RING KRAS INHIBITORS FOR TREATING DISEASE” (BLOSSOMHILL THERAPEUTICS, INC., priority 2022, published 2026)

Legend:
Type in all cases: cell-based
GP2D (KRAS G12D) = test: Cell proliferation assay (CellTiter-Glo, 72 hours), GP2D; conditions: GP2d, 72 h, 384-well, CellTiter-Glo 2.0
Method: (§1) Two thousand KRAS mutant cells per well were seeded in 384-well white plate and then treated with indicated compounds for 72 hours at 37° C. and 5% CO2. Cell proliferation was measured using CellTiter-Glo 2.0 luciferase-based ATP detection assay (Promega, Madison, WI) following the manufacturer's protocol. IC50 values were determined using Prism software (GraphPad Software, San Diego, CA).

AGS (G12D) = test: Cell proliferation assay (CellTiter-Glo, 72 hours), AGS; conditions: 72 h, 384-well, CellTiter-Glo 2.0
Method: as §1

SW620 (KRAS G12V) = test: Cell proliferation assay (CellTiter-Glo, 72 hours), SW620; conditions: Homo sapiens, SW-620, 72 h, 384-well, CellTiter-Glo 2.0
Method: as §1

SMILES	IC50 (GP2D (KRAS G12D)) [µM]	IC50 (AGS (G12D)) [µM]	IC50 (SW620 (KRAS G12V)) [µM]
C#Cc1c(F)ccc2cc(O)cc(-c3nc4c5c(nc(OC[C@@]67CCCN6C[C@H](F)C7)nc5c3F)N(C)[C@@H](CO)CO4)c12 [Example 27, 5-ethynyl-6-fluoro-4-[(9S)-4-fluoro-2-{[(2R,7aS)-2-fluorotetrahydro-1H-pyrrolizin-7a(5H)-yl]methoxy}-9-(hydroxymethyl)-10-methyl-9,10-dihydro-8H-7-oxa-1,3,6,10-tetraazacyclohepta[1,2,3-de]naphthalen-5-yl]naphthalen-2-ol]	> 3	> 3	
CCc1c(F)ccc2cc(O)cc(-c3nc4c5c(nc(OC[C@@]67CCCN6C[C@H](F)C7)nc5c3F)N(C)[C@@H](CO)CO4)c12 [Example 28, 5-ethyl-6-fluoro-4-[(9S)-4-fluoro-2-{[(2R,7aS)-2-fluorotetrahydro-1H-pyrrolizin-7a(5H)-yl]methoxy}-9-(hydroxymethyl)-10-methyl-9,10-dihydro-8H-7-oxa-1,3,6,10-tetraazacyclohepta[1,2,3-de]naphthalen-5-yl]naphthalen-2-ol]	> 3	> 3	> 3
C#Cc1c(F)ccc2cc(O)cc(-c3nc4c5c(nc(OC[C@@]67CCCN6C[C@H](F)C7)nc5c3F)N3C[C@H](O)CC[C@H]3CO4)c12 [Example 29, (8aS,11R)-5-(8-ethynyl-7-fluoro-3-hydroxynaphthalen-1-yl)-4-fluoro-2-{[(2R,7aS)-2-fluorotetrahydro-1H-pyrrolizin-7a(5H)-yl]methoxy}-8,8a,9,10,11,12-hexahydro-7-oxa-1,3,6,12a-tetraazabenzo[4,5]cyclohepta[1,2,3-de]naphthalen-11-ol]	0.364	0.76	> 3
C#Cc1c(F)ccc2cc(O)cc(-c3nc4c5c(nc(OC[C@@]67CCCN6C[C@H](F)C7)nc5c3F)N3C[C@](C)(O)CC[C@H]3CO4)c12 [Example 30, (8aS,11R)-5-(8-ethynyl-7-fluoro-3-hydroxynaphthalen-1-yl)-4-fluoro-2-{[(2R,7aS)-2-fluorotetrahydro-1H-pyrrolizin-7a(5H)-yl]methoxy}-11-methyl-8,8a,9,10,11,12-hexahydro-7-oxa-1,3,6,12a-tetraazabenzo[4,5]cyclohepta[1,2,3-de]naphthalen-11-ol]	0.0505	0.0973	0.139
C#Cc1c(F)ccc2cc(O)cc(-c3nc4c5c(nc(OC[C@@]67CCCN6C[C@H](F)C7)nc5c3F)N[C@@H](C3CC3)CO4)c12 [Example 31, 4-[(9S)-9-cyclopropyl-4-fluoro-2-{[(2R,7aS)-2-fluorotetrahydro-1H-pyrrolizin-7a(5H)-yl]methoxy}-9,10-dihydro-8H-7-oxa-1,3,6,10-tetraazacyclohepta[1,2,3-de]naphthalen-5-yl]-5-ethynyl-6-fluoronaphthalen-2-ol]	1.88	> 3	> 3
C#Cc1c(F)ccc2cc(O)cc(-c3nc4c5c(nc(OC[C@@]67CCCN6C[C@H](F)C7)nc5c3F)N(C)[C@@H](C3CC3)CO4)c12 [Example 32, 4-[(9S)-9-cyclopropyl-4-fluoro-2-{[(2R,7aS)-2-fluorotetrahydro-1H-pyrrolizin-7a(5H)-yl]methoxy}-10-methyl-9,10-dihydro-8H-7-oxa-1,3,6,10-tetraazacyclohepta[1,2,3-de]naphthalen-5-yl]-5-ethynyl-6-fluoronaphthalen-2-ol]	0.293	0.623	0.693
CCc1c(F)ccc2cc(O)cc(-c3nc4c5c(nc(OC[C@@]67CCCN6C[C@H](F)C7)nc5c3F)N[C@@H](C3CC3)CO4)c12 [Example 33, 4-[(9S)-9-cyclopropyl-4-fluoro-2-{[(2R,7aS)-2-fluorotetrahydro-1H-pyrrolizin-7a(5H)-yl]methoxy}-9,10-dihydro-8H-7-oxa-1,3,6,10-tetraazacyclohepta[1,2,3-de]naphthalen-5-yl]-5-ethyl-6-fluoronaphthalen-2-ol]	0.962	2.84	1.53
C#Cc1c(F)ccc2cc(O)cc(-c3nc4c5c(nc(OC[C@@]67CCCN6C[C@H](F)C7)nc5c3F)N[C@@H](C3CCC3)CO4)c12 [Example 35, 4-[(9S)-9-cyclobutyl-4-fluoro-2-{[(2R,7aS)-2-fluorotetrahydro-1H-pyrrolizin-7a(5H)-yl]methoxy}-9,10-dihydro-8H-7-oxa-1,3,6,10-tetraazacyclohepta[1,2,3-de]naphthalen-5-yl]-5-ethynyl-6-fluoronaphthalen-2-ol]	> 3	> 3	> 3
CCc1c(F)ccc2cc(O)cc(-c3nc4c5c(nc(OC[C@@]67CCCN6C/C(=C\F)C7)nc5c3F)N3CCCC[C@H]3CO4)c12 [Example 41, 5-ethyl-6-fluoro-4-[(8aS)-4-fluoro-2-{[(2Z,7aS)-2-(fluoromethylidene)tetrahydro-1H-pyrrolizin-7a(5H)-yl]methoxy}-8,8a,9,10,11,12-hexahydro-7-oxa-1,3,6,12a-tetraazabenzo[4,5]cyclohepta[1,2,3-de]naphthalen-5-yl]naphthalen-2-ol]	0.0207	0.0431	0.042
C#Cc1c(F)ccc2cc(O)cc(-c3nc4c5c(nc(OC[C@@]67CCCN6C[C@H](F)C7)nc5c3F)N[C@@H](C(C)C)CO4)c12 [Example 47, 5-ethynyl-6-fluoro-4-[(9S)-4-fluoro-2-{[(2R,7aS)-2-fluorotetrahydro-1H-pyrrolizin-7a(5H)-yl]methoxy}-9-(propan-2-yl)-9,10-dihydro-8H-7-oxa-1,3,6,10-tetraazacyclohepta[1,2,3-de]naphthalen-5-yl]naphthalen-2-ol]	≥ 6	0.789	> 3
C#Cc1c(F)ccc2cc(O)cc(-c3nc4c5c(nc(OC[C@@]67CCCN6C[C@H](F)C7)nc5c3F)N3CCC[C@@](C)(O)[C@H]3CO4)c12 [Example 53, (8aR,9R)-5-(8-ethynyl-7-fluoro-3-hydroxynaphthalen-1-yl)-4-fluoro-2-{[(2R,7aS)-2-fluorotetrahydro-1H-pyrrolizin-7a(5H)-yl]methoxy}-9-methyl-8,8a,9,10,11,12-hexahydro-7-oxa-1,3,6,12a-tetraazabenzo[4,5]cyclohepta[1,2,3-de]naphthalen-9-ol]	0.0345	0.113	
C#Cc1c(F)ccc2cc(O)cc(-c3nc4c5c(nc(OC[C@@]67CCCN6C[C@H](F)C7)nc5c3F)N3CC(F)(F)CC[C@H]3CO4)c12 [Example 98, 5-ethynyl-6-fluoro-4-[(8aS)-4,11,11-trifluoro-2-{[(2R,7aS)-2-fluorotetrahydro-1H-pyrrolizin-7a(5H)-yl]methoxy}-8,8a,9,10,11,12-hexahydro-7-oxa-1,3,6,12a-tetraazabenzo[4,5]cyclohepta[1,2,3-de]naphthalen-5-yl]naphthalen-2-ol]	0.114		
C#Cc1c(F)ccc2cc(O)cc(-c3nc4c5c(nc(OC[C@@]67CCCN6C[C@H](F)C7)nc5c3F)N3CCC[C@](C)(O)[C@@H]3CO4)c12 [Example 113, (8aS,9S)-5-(8-ethynyl-7-fluoro-3-hydroxynaphthalen-1-yl)-4-fluoro-2-{[(2R,7aS)-2-fluorotetrahydro-1H-pyrrolizin-7a(5H)-yl]methoxy}-9-methyl-8,8a,9,10,11,12-hexahydro-7-oxa-1,3,6,12a-tetraazabenzo[4,5]cyclohepta[1,2,3-de]naphthalen-9-ol]	> 3	> 3	
